# Results from patent publication US20260297070A1, “CYCLIC [COMPOUND LEFT OUT] WRN INHIBITORS” (Nimbus Wadjet, Inc., priority 2023, published 2026).
# Molecular target: T1, human Werner helicase (WRN-BV08, Uniprot Q14191, amino acids 517-1235 with L1074F point mutation) (Homo sapiens, UniProt Q14191, L1074F)
# T1 construct: Uniprot Q14191, amino acids 517-1235 with L1074F point mutation; TEV-cleavable 8×His (C, cleaved yes); made in house; host or cells: Sf9 insect cells (baculovirus)
# Experiment: WRN (BV08) ADP-Glo Assay
# Assay type: biochemical
# Details: 0.15 nM WRN, 5 μM ATP, 0.1 nM DNA duplex, 15 min preincubation, 60 min at 25° C., pH 7.5, 1% DMSO; read-out: ADP-Glo_hWRN_IC50
# In short: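 0.15 nM WRN (aa 517-1235, L1074F, Sf9-expressed, tag cleaved) preincubated 15 min at 25 °C with compound, then 5 μM ATP and 0.1 nM DNA duplex added for 60 min. Buffer: 20 mM Bicine pH 7.5, 1 mM MgCl2, 10 mM KCl, 1 mM TCEP; 1% DMSO. ADP-Glo luminescence; IC50 by 4-parameter fit.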
# T1 sequence (Q14191 with tags, fused parts or gaps L1074F limits assumed): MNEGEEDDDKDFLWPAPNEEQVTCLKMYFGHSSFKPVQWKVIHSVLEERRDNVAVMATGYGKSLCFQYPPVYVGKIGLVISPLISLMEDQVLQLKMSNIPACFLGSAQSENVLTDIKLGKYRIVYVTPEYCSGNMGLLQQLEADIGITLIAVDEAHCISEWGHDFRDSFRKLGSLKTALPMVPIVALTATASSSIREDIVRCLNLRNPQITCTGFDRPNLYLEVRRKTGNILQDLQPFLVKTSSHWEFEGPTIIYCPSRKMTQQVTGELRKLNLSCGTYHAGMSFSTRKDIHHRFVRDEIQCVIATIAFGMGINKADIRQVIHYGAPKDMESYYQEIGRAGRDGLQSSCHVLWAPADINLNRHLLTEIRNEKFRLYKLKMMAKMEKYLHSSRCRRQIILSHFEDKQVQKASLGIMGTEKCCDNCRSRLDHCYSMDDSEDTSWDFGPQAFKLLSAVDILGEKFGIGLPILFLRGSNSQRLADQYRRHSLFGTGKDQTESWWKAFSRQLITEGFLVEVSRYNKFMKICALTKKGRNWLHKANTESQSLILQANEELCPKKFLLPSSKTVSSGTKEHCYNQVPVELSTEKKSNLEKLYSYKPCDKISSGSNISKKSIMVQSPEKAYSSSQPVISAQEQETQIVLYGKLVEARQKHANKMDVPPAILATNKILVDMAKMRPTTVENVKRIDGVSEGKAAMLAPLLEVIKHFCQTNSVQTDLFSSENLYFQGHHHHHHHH
row,SMILES,IC50 [µM]
1,"NS(=O)(=O)c1ccc(CN(C(=O)Cc2ccc(-n3cccc3)cc2)C2C=CS(=O)(=O)C2)cc1 (centres unmarked) [I-184, N-(1,1-dioxo-2,3-dihydro-1lambda6-thiophen-3-yl)-2-[4-(1H-pyrrol-1-yl)phenyl]-N-[(4-sulfamoylphenyl)methyl]acetamide]",0.5 to 5
2,"O=C(Cc1ccc(Oc2ccccc2)cc1)N(Cc1ccncc1)C1C=CS(=O)(=O)C1 (centres unmarked) [I-503, N-(1,1-dioxo-2,3-dihydro-1lambda6-thiophen-3-yl)-2-(4-phenoxyphenyl)-N-[(pyridin-4-yl)methyl]acetamide]",> 50
3,"O=C(Cc1ccc(-n2cccc2)cc1)N(Cc1nc2ccccc2s1)C1C=CS(=O)(=O)C1 (centres unmarked) [I-149, N-[(1,3-benzothiazol-2-yl)methyl]-N-(1,1-dioxo-2,3-dihydro-1lambda6-thiophen-3-yl)-2-[4-(1H-pyrrol-1-yl)phenyl]acetamide]",0.5 to 5
4,"COc1cc(CN(C(=O)Cc2ccc(-n3c(C)ccc3C)cc2F)C2C=CS(=O)(=O)C2)ccn1 (centres unmarked) [I-171, 2-[4-(2,5-dimethyl-1H-pyrrol-1-yl)-2-fluorophenyl]-N-(1,1-dioxo-2,3-dihydro-1lambda6-thiophen-3-yl)-N-[(2-methoxypyridin-4-yl)methyl]acetamide]",0.5 to 5
5,"O=C(Cc1ccc(-n2cccc2)cc1)N(Cc1nccs1)C1C=CS(=O)(=O)C1 (centres unmarked) [I-276, N-(1,1-dioxo-2,3-dihydro-1lambda6-thiophen-3-yl)-2-[4-(1H-pyrrol-1-yl)phenyl]-N-[(1,3-thiazol-2-yl)methyl]acetamide]",5 to 10
6,"CN(C)C(=O)C(C(=O)N(Cc1nc(C2CC2)cs1)C1C=CS(=O)(=O)C1)c1ccc(S(F)(F)(F)(F)F)cc1 (centres unmarked) [I-107, N′-[(4-cyclopropyl-1,3-thiazol-2-yl)methyl]-N′-(1,1-dioxo-2,3-dihydro-1lambda6-thiophen-3-yl)-N,N-dimethyl-2-[4-(pentafluoro-lambda6-sulfanyl)phenyl]propanediamide]",0.5 to 5
7,"O=C(C1Cc2cc(-n3cccc3)ccc21)N(Cc1ccncc1)C1C=CS(=O)(=O)C1 (centres unmarked) [I-233, N-(1,1-dioxido-2,3-dihydrothiophen-3-yl)-N-(pyridin-4-ylmethyl)-3-(1H-pyrrol-1-yl)bicyclo[4.2.0]octa-1(6),2,4-triene-7-carboxamide]",5 to 10
8,"O=C(Cc1ccc(-n2cccc2)cc1)N(Cc1ccc(Br)cc1)C1C=CS(=O)(=O)C1 (centres unmarked) [I-163, N-[(4-bromophenyl)methyl]-N-(1,1-dioxo-2,3-dihydro-1lambda6-thiophen-3-yl)-2-[4-(1H-pyrrol-1-yl)phenyl]acetamide]",0.5 to 5
9,"COc1cc(CN(C(=O)Cc2ccn(-c3ccc(Cl)cc3)n2)C2C=CS(=O)(=O)C2)ccn1 (centres unmarked) [I-380, 2-[1-(4-chlorophenyl)-1H-pyrazol-3-yl]-N-(1,1-dioxo-2,3-dihydro-1lambda6-thiophen-3-yl)-N-[(2-methoxypyridin-4-yl)methyl]acetamide]",> 50
10,"N#Cc1ccc(CC(=O)N(Cc2ccncc2)C2C=CS(=O)(=O)C2)cc1 (centres unmarked) [I-513, 2-(4-cyanophenyl)-N-(1,1-dioxo-2,3-dihydro-1lambda6-thiophen-3-yl)-N-[(pyridin-4-yl)methyl]acetamide]",> 50
11,"CN(C)C(=O)C(C(=O)N(Cc1ccnc(C(C)(C)O)c1)C1C=CS(=O)(=O)C1)c1ccc(-c2ccc(F)cc2)cc1 (centres unmarked) [I-34, N-(1,1-dioxo-2,3-dihydro-1lambda6-thiophen-3-yl)-2-{4′-fluoro-[1,1′-biphenyl]-4-yl}-N-{[2-(2-hydroxypropan-2-yl)pyridin-4-yl]methyl}-N′,N′-dimethylpropanediamide]",< 0.5
12,"O=C(Cc1ccc(S(F)(F)(F)(F)F)cc1)N(Cc1nc(C2CC2)cs1)C1C=CS(=O)(=O)C1 (centres unmarked) [I-41, N-[(4-cyclopropyl-1,3-thiazol-2-yl)methyl]-N-(1,1-dioxo-2,3-dihydro-1lambda6-thiophen-3-yl)-2-[4-(pentafluoro-lambda6-sulfanyl)phenyl]acetamide]",< 0.5
13,"O=C(CCCc1c[nH]c2ccccc12)N(Cc1ccncc1)C1C=CS(=O)(=O)C1 (centres unmarked) [I-500, N-(1,1-dioxo-2,3-dihydro-1lambda6-thiophen-3-yl)-4-(1H-indol-3-yl)-N-[(pyridin-4-yl)methyl]butanamide]",> 50
14,"Cc1cccn1-c1ccc(CC(=O)N(Cc2ccn(C)c(=O)c2)C2C=CS(=O)(=O)C2)c(F)c1 (centres unmarked) [I-173, N-(1,1-dioxo-2,3-dihydro-1lambda6-thiophen-3-yl)-2-[2-fluoro-4-(2-methyl-1H-pyrrol-1-yl)phenyl]-N-[(1-methyl-2-oxo-1,2-dihydropyridin-4-yl)methyl]acetamide]",0.5 to 5
15,"O=C(CCc1c[nH]c2cc(Cl)ccc12)N(Cc1ccncc1)C1C=CS(=O)(=O)C1 (centres unmarked) [I-306, 3-(6-chloro-1H-indol-3-yl)-N-(1,1-dioxo-2,3-dihydro-1lambda6-thiophen-3-yl)-N-[(pyridin-4-yl)methyl]propanamide]",10 to 50
16,"O=C(Cc1ccc(-n2cccc2)cc1F)N(Cc1ccncc1)C1C=CS(=O)(=O)C1 (centres unmarked) [I-161, N-(1,1-dioxo-2,3-dihydro-1lambda6-thiophen-3-yl)-2-[2-fluoro-4-(1H-pyrrol-1-yl)phenyl]-N-[(pyridin-4-yl)methyl]acetamide]",0.5 to 5

# Further lines, results first:
row,IC50 [µM],SMILES
1,< 0.5,"CC(C)(O)c1cc(CN(C(=O)Cn2cc(-c3ccc(C(F)(F)F)cc3)cn2)C2C=CS(=O)(=O)C2)ccn1 (single isomer, unassigned) [I-638]"
2,0.5 to 5,"O=C(Cc1ccc(S(F)(F)(F)(F)F)cc1)N(Cc1noc(C2CC2)n1)C1C=CS(=O)(=O)C1 (centres unmarked) [I-644, N-[(5-cyclopropyl-1,2,4-oxadiazol-3-yl)methyl]-N-(1,1-dioxo-2,3-dihydro-1lambda6-thiophen-3-yl)-2-[4-(pentafluoro-lambda6-sulfanyl)phenyl]acetamide]"
3,5 to 10,"COc1cc(CN(C(=O)C(c2ccc(-c3ccc(F)c(F)c3)cc2F)n2cccn2)[C@@H]2C=CS(=O)(=O)C2)ccn1 (single isomer, unassigned) [I-672, (2R*)-N-[(3R)-1,1-dioxo-2,3-dihydro-1lambda6-thiophen-3-yl]-N-[(2-methoxypyridin-4-yl)methyl]-2-(1H-pyrazol-1-yl)-2-{3,3′,4′-trifluoro-[1,1′-biphenyl]-4-yl}acetamide]"
4,> 50,"O=C(CC1CCN(c2ccccc2)CC1)N(Cc1ccncc1)C1C=CS(=O)(=O)C1 (centres unmarked) [I-552, N-(1,1-dioxo-2,3-dihydro-1lambda6-thiophen-3-yl)-2-(1-phenylpiperidin-4-yl)-N-[(pyridin-4-yl)methyl]acetamide]"
5,10 to 50,"COc1cc(CN(C(=O)C(c2ccc(-c3ccc(F)c(F)c3)cc2F)n2ncc3ccncc32)[C@@H]2C=CS(=O)(=O)C2)ccn1 (stereo partly drawn) [I-751, N-[(3R)-1,1-dioxo-2,3-dihydro-1lambda6-thiophen-3-yl]-N-[(2-methoxypyridin-4-yl)methyl]-2-{1H-pyrazolo[3,4-c]pyridin-1-yl}-2-{3,3′,4′-trifluoro-[1,1′-biphenyl]-4-yl}acetamide]"
6,< 0.5,"CC(C)(O)c1cc(CN(C(=O)Cc2cc(-c3ccc(F)c(F)c3)sn2)[C@@H]2C=CS(=O)(=O)C2)ccn1 [I-825, 2-[5-(3,4-difluorophenyl)-1,2-thiazol-3-yl]-N-[(3R)-1,1-dioxo-2,3-dihydro-1lambda6-thiophen-3-yl]-N-{[2-(2-hydroxypropan-2-yl)pyridin-4-yl]methyl}acetamide]"
7,5 to 10,"COc1cc(C(C)N(C(=O)Cn2cc(-c3cc(F)c(F)c(F)c3)cn2)C2C=CS(=O)(=O)C2)ccn1 (single isomer, unassigned) [I-830, N-[(3R**)-1,1-dioxo-2,3-dihydro-1lambda6-thiophen-3-yl]-N-[(1R*)-1-(2-methoxypyridin-4-yl)ethyl]-2-[4-(3,4,5-trifluorophenyl)-1H-pyrazol-1-yl]acetamide]"
8,0.5 to 5,"O=C(Cn1cc(-c2ccc(F)cc2)cn1)N(Cc1nc(C2CC2)cs1)C1C=CS(=O)(=O)C1 (single isomer, unassigned) [I-601]"
9,< 0.5,"COc1cc(CN(C(=O)C(c2ccc(-c3ccc(F)c(F)c3)cc2F)n2ccnn2)[C@@H]2C=CS(=O)(=O)C2)ccn1 (stereo partly drawn) [I-732, N-[(3R)-1,1-dioxo-2,3-dihydro-1lambda6-thiophen-3-yl]-N-[(2-methoxypyridin-4-yl)methyl]-2-(1H-1,2,3-triazol-1-yl)-2-{3,3′,4′-trifluoro-[1,1′-biphenyl]-4-yl}acetamide]"
10,> 50,"COc1ccc(-c2ccc(CC(=O)N(Cc3ccncc3)C3C=CS(=O)(=O)C3)cc2)cc1 (centres unmarked) [I-555, N-(1,1-dioxo-2,3-dihydro-1lambda6-thiophen-3-yl)-2-{4′-methoxy-[1,1′-biphenyl]-4-yl}-N-[(pyridin-4-yl)methyl]acetamide]"
11,> 50,"CC(C)C(=O)NC(Cc1c[nH]c2ccccc12)C(=O)N(Cc1ccncc1)C1C=CS(=O)(=O)C1 (centres unmarked) [I-559, N-(1,1-dioxo-2,3-dihydro-1lambda6-thiophen-3-yl)-3-(1H-indol-3-yl)-2-(2-methylpropanamido)-N-[(pyridin-4-yl)methyl]propanamide]"
12,< 0.5,"COc1cc(CN(C(=O)C(c2ccc(-c3ccc(F)c(F)c3)cc2F)n2ccc(C)n2)[C@@H]2C=CS(=O)(=O)C2)ccn1 (single isomer, unassigned) [I-737, (2R*)-N-[(3R)-1,1-dioxo-2,3-dihydro-1lambda6-thiophen-3-yl]-N-[(2-methoxypyridin-4-yl)methyl]-2-(3-methyl-1H-pyrazol-1-yl)-2-{3,3′,4′-trifluoro-[1,1′-biphenyl]-4-yl}acetamide]"
13,> 50,"O=C([C@H]1CC[C@@H](Cn2cccn2)O1)N(Cc1ccncc1)C1C=CS(=O)(=O)C1 (mixture of isomers) [I-716, rac-(2R,5S)-N-(1,1-dioxo-2,3-dihydro-1lambda6-thiophen-3-yl)-5-[(1H-pyrazol-1-yl)methyl]-N-[(pyridin-4-yl)methyl]oxolane-2-carboxamide]"
